PMC10518255, “A first-in-class pan-lysyl oxidase inhibitor impairs stromal remodeling and enhances gemcitabine response and survival in pancreatic cancer” (Nature Cancer, 2023)
Values joined by “and” are separate entries in the source; they are usually repeats but may differ in a detail not shown here. Identical values can stand only once.

Legend:
KPC PDAC tumors [1] = test: FITC-dextran (10 kDa) perfusion imaging, KPC tumors; type: in vivo, mouse; settings: for FITC-dextran (10 kDa) signal quantification: Extended Data 5C, KPC tumour endpoint, individual FOV, 5xFOV per tumour
Description: FITC-dextran (10 kDa) was administered at 40 mg ml^−1 in saline via tail vain 2 h before culling. Excised tumors were flash-frozen in OCT and cryosectioned at 14 μm. Sections were counterstained with 4,6-diamidino-2-phenylindole (DAPI) and images were collected using a Leica DMI5500 (×40 magnification). Images were quantified using Fiji Software for Integrated Density Signal.
Extended Data Fig. 5 PXS-5505 in combination with gemcitabine in vivo. a. […] Signal is defined as the enzyme activity in the aorta, while noise is measured in the presence of a high concentration (300 µM) BAPN to abolish any lysyl oxidase family activity. […] Data presented as mean values +/− SD b. […] Data presented as mean values +/− SD. c. FITC-dextran (molecular weight: 10 kDa) signal quantification from KPC tumor end point from each treatment group (vehicle n = 3 biologically independent animals, PXS-5505 n = 5 biologically independent animals, Gem n = 5 biologically independent animals, PXS-5505 + Gem n = 5 biologically independent animals). […] P-values determined by Welchs t-test. Data presented as mean values +/− SD. Scale bars = 100 μm d. Quantification of red birefringent (mature) collagen fibers from human PDXs at end point after 3 cycles of treatment, treated as indicated. […] Quantification of bulk modulus (stiffness) by unconfined compression testing of end point human PDX tumors from each treatment group (vehicle n = 5 biologically independent animals, Gem n = 5 biologically independent animals, PXS-5505 n = 5 biologically independent animals, PXS-5505 + Gem n = 5 biologically independent animals) [individual tumors shown]). […] FITC-dextran (molecular weight 10 kDa) signal quantification from human PDXs from each treatment group (vehicle n = 4 biologically independent animals, PXS-5505 n = 5 biologically independent animals, Gem n = 5 biologically independent animals, PXS-5505 + Gem n = 5 biologically independent animals). […] P values determined by Welchs t-test. g. […] Quantification of green birefringent (nascent) collagen fibers from human PDXs at end point, treated as indicated. […]

KPC mouse model of PDAC = test: KPC in vivo survival study; settings: KPC mice; PXS-5505 20 mg kg−1 i.p. daily, gemcitabine 100 mg kg−1 i.p. twice weekly
Source text: (§1) The maximal tumor burden allowed by ethics was not exceeded.
as §1

KPC PDAC tumors [2] = test: SHG multiphoton imaging of fibrillar collagen in end-point KPC tumors; type: in vivo, mouse; settings: for SHG peak signal intensity: 5 animals per group, 5 FOV per animal, single FOV values
Description: Fig. 4 PXS-5505 administered in a KPC in vivo survival study. a, Schematic of the KPC in vivo survival study. Presence of a primary tumor in KPC mice was confirmed by two independent researchers (positive diagnosis) before commencement of daily treatment (Tx) on one of four treatment arms as follows: vehicle, 0.9% saline; Gem, twice-weekly gemcitabine (100 mg kg^−1 i.p.); PXS-5505, daily PXS-5505 at 20 mg kg^−1 i.p.; and PXS-5505 + Gem, daily PXS-5505 at 20 mg kg^−1 i.p. + twice-weekly gemcitabine (100 mg kg^−1 i.p.). b, Table of median survival (since diagnosis/commencement of treatment) across the four treatment groups (n = 30 biologically independent animals (vehicle), n = 31 biologically independent animals (Gem), n = 36 biologically independent animals (PXS-5505), n = 46 biologically independent animals (PXS-5505 + Gem)). c, Kaplan–Meier curves for overall survival across treatment arms (n = 30 biologically independent animals (vehicle), n = 31 biologically independent animals (Gem), n = 36 biologically independent animals (PXS-5505), n = 46 biologically independent animals (PXS-5505 + Gem)). P values determined by log-rank (Mantel–Cox) test. d, Representative maximum intensity projections of SHG multiphoton imaging for tumors from each treatment group (n = 1 FOV taken from one biologically independent animal per group) at end point (scale bars, 100 μm) and quantification of SHG peak signal intensity (n = 5 biologically independent animals per group and five FOV per animal). Data are mean ± s.d. […] Quantification of metastases (n = 18 biologically independent animals (vehicle), n = 18 biologically independent animals (Gem), n = 17 biologically independent animals (PXS-5505), n = 15 biologically independent animals (PXS-5505 + Gem)). Data are mean ± s.d.
SHG imaging of fibrillar collagens was employed to analyze collagen density and organization as performed previously[28],[34],[58]. […] Intensity was recorded with a RLD HyD detector (440/20 nm). […] SHG signal intensities were measured using MATLAB (MathWorks) as described previously[28],[34],[58].

Nc1ccn([C@@H]2O[C@H](CO)[C@@H](O)C2(F)F)c(=O)n1 [Gem, gemcitabine]
FITC-dextran (10 kDa) signal quantification (KPC PDAC tumors [1]): 60068 and 66083 and 67045 and 264388 and 103749 and 136715 and 44993 and 342971 and 570220 and 195046 and 425899 and 308368 and 729076 and 598797 and 690249 and 193339 and 215616 and 99212 and 74761 and 57841
FITC-dextran signal (tumor perfusion) (KPC PDAC tumors [1]; KPC tumors at end point): significantly reduced FITC signal
Median survival since diagnosis (KPC mouse model of PDAC): 125 days
fibrillar collagen / stromal content by SHG (KPC PDAC tumors [2]): significantly increased stromal content
SHG peak signal intensity (KPC PDAC tumors [2]): 116.837 and 121.251 and 74.7808 and 58.0704 and 58.6614 and 88.5172 and 66.9647 and 76.4458 and 85.1379 and 61.658 and 86.6036 and 56.3648 and 49.2982 and 91.4138 and 56.7061 and 67.2683 and 73.645 and 75.3134 and 83.1972 and 82.1163 and 64.6996 and 72.2796 and 40.261 and 45.2578 and 54.2825

Cl.Cl.NC/C=C(\F)CS(=O)(=O)c1cccc2cccnc12.O [PXS-5505, (Z)-3-fluoro-4-(quinolin-8-ylsulfonyl)but-2-en-1-amine dihydrochloride monohydrate]
FITC-dextran (10 kDa) signal quantification (KPC PDAC tumors [1]): 643536 and 877109 and 855018 and 639402 and 1028780 and 1101294 and 1096543 and 614729 and 1678517 and 411292 and 888855 and 96222 and 332580 and 192955 and 224263 and 475860 and 248857 and 803743 and 104073 and 736895
Median survival since diagnosis (KPC mouse model of PDAC): 81 days
SHG peak signal intensity (KPC PDAC tumors [2]): 45.7826 and 42.6725 and 46.4759 and 51.7331 and 29.3681 and 51.0162 and 24.7531 and 11.1698 and 19.0235 and 45.4063 and 19.8592 and 24.5743 and 17.8792 and 16.4101 and 14.0868 and 27.3224 and 22.509 and 34.8879 and 24.4703 and 26.4774 and 34.2776 and 17.1388 and 29.5006 and 45.3832 and 44.8772
